Source: PubChem BioAssay (NCI)
Several values for one entry are separate records, joined by “and”; a condition that tells them apart may be missing. Identical values can stand only once.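 Step 1: Grow cells in 96-well plates. Step 2: Expose to compound for 48 hours at 5 concentrations. Step 3: Interpolate endpoints linearly; if unreached, use highest concentration. GI50 is the concentration that inhibits growth by half. TGI is the concentration that stops growth completely.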

Assays:
Assay in all cases: NCI tumour cell line growth inhibition, 48 h
[1] = system: SNB-78 CNS
[2] = system: HOP-18 NSCLC
[3] = system: DMS 273 small cell lung
[4] = system: DMS 114 small cell lung
[5] = system: MALME-3M melanoma
[6] = system: XF 498 CNS
[7] = system: SN12K1 renal
[8] = system: HCC-2998 colon
[9] = system: P388 leukemia
[10] = system: SR leukemia
[11] = system: MDA-N
[12] = system: TK-10 renal
[13] = system: 786-0 renal
[14] = system: ACHN renal
[15] = system: RXF-631 renal
[16] = system: LXFL 529 NSCLC
[17] = system: P388/ADR leukemia

Row | SMILES | TGI [1] [µM] | TGI [2] [µM] | TGI [3] [µM] | TGI [5] | TGI [8] [µM] | TGI [10] | TGI [11] [µM] | TGI [12] | TGI [14] | other results
1 | C/C(=C/C(=O)Nc1ccccc1)Nc1onc(C)c1C | > 100 | > 100 | > 100 | > 100 µM | > 100 | – | – | – | – | TGI [4]: > 100 µM; TGI [6]: > 100 µM; TGI [7]: > 100 µM; TGI [9]: > 100 µM
2 | O=C1OC(c2ccccc2)=NC1c1ccccc1 (centres undefined) | – | – | – | – | > 100 | > 100 µM | > 100 | > 100 µM | > 100 µM | TGI [13]: > 100 µM
3 | COc1cc(OC2OC(CO)C(O)C(O)C2O)c2c(O)c3c(=O)cc(C)oc3cc2c1 (centres undefined) | – | – | – | > 100 µM | > 100 | – | – | > 100 µM | > 100 µM | –
4 | CCOC(=O)Cc1cc(OC)c(OC)cc1/C(Cl)=C(\CO)c1ccc(OC)c(OC)c1 | > 100 | > 100 | > 100 | > 100 µM | – | – | – | > 100 µM | > 100 µM | TGI [4]: > 100 µM; TGI [6]: 49.2 µM; TGI [15]: > 100 µM
5 | CCCCCC(=O)N[C@@H](c1ccco1)[C@@H](O)C(=O)O[C@H]1C[C@@]2(O)[C@@H](OC(=O)c3ccccc3)[C@@H]3[C@]4(OC(C)=O)CO[C@@H]4C[C@H](O)[C@@]3(C)C(=O)[C@H](OC(C)=O)C(=C1C)C2(C)C | – | – | – | – | > 25 | > 25 µM | – | 18.2 µM | > 25 µM | GI50 [12]: 0.0275 µM; GI50 [5]: 0.000357 µM
6 | O=C1C(Cl)N(c2c(Cl)cccc2Cl)C1c1c[nH]c2ccccc12 (centres undefined) | – | – | – | > 100 µM | – | > 100 µM | – | > 100 µM | – | TGI [16]: > 100 µM; TGI [6]: > 100 µM
7 | O=C(Nc1ccc([N+](=O)[O-])cc1)Nn1cnnc1 | – | – | – | 80 µM | > 100 | > 100 µM | > 100 | > 100 µM | > 100 µM | –
8 | C[N+](C)(CCCCCC[N+](C)(C)CCCN1C(=O)c2cccc3cccc(c23)C1=O)CCCN1C(=O)c2cccc3cccc(c23)C1=O | – | – | – | > 100 µM | – | > 100 µM | > 100 | > 100 µM | > 100 µM | –
9 | COc1ccccc1/C=C(/C)[N+](=O)[O-] | – | – | – | 5.72 µM and 3.97 µM | – | 1.61 µM and 5.08 µM | – | 13 µM and 4.21 µM | 4.68 µM and 5.46 µM | GI50 [10]: 0.237 µM and 1.5 µM; TGI [13]: > 100 µM
10 | O=NN1C(c2ccccc2)CNC(=O)CC1c1ccccc1 (centres undefined) | > 100 | > 100 | > 100 | > 100 µM | > 100 | – | – | – | – | TGI [4]: 59.3 µM; TGI [7]: > 100 µM; TGI [17]: 63.5 µM; TGI [9]: 62.3 µM
11 | CC(C)(O)/C1=C/C=C/CCCCCCCCCC1 | – | – | – | > 100 µM | > 100 | > 100 µM | > 100 | > 100 µM | > 100 µM | –
12 | O=[N+]([O-])C(=C/c1ccccc1)/C(=C\c1ccccc1)[N+](=O)[O-] | – | – | – | – | 36 | – | 33.1 | 29.6 µM | 30.6 µM | –
13 | CCNC(=O)C(C)C1CCC2(C)C=CC(=O)C(C)=C2C1O (centres undefined) | > 100 | > 100 | > 100 | – | > 100 | – | – | – | – | TGI [4]: > 100 µM; TGI [6]: > 100 µM; TGI [7]: > 100 µM; TGI [17]: > 100 µM; TGI [9]: > 100 µM
14 | OCC1O[C@H](O[C@@H]2CCCN3CC(O)C(O)[C@@H]23)C(O)C(O)C1O (some centres undefined) | > 100 | > 100 | > 100 | > 100 µM | > 100 | > 100 µM | – | > 100 µM | > 100 µM | TGI [16]: > 100 µM; TGI [15]: > 100 µM
